Data from ChEMBL document CHEMBL4311970 (Eur J Med Chem, 2019).
Activity calls are given as the source filed them. No cut-off for these calls is given here.

Key:
[1] = Cytotoxicity against human NHBE cells assessed as reduction in cell viability incubated for 72 hrs by SRB assay; format: cell-based
[2] = Antiproliferative activity against human KBVIN cells assessed as reduction in cell viability incubated for 72 hrs by SRB assay; format: functional, cell-based
A549 = assay: Antiproliferative activity against human A549 cells assessed as reduction in cell viability incubated for 72 hrs by SRB assay; format: functional, cell-based; details: A549, 72 h
[3] = biological target: T1, M-phase inducer phosphatase 3 (Homo sapiens) (UniProt P30307); assay: Inhibition of recombinant human Cdc25C at 10 uM using OMFP as substrate preincubated for 5 to 8 mins and measured every 5 mins 60 mins by fluorescence based assay
T1 sequence (whole entry): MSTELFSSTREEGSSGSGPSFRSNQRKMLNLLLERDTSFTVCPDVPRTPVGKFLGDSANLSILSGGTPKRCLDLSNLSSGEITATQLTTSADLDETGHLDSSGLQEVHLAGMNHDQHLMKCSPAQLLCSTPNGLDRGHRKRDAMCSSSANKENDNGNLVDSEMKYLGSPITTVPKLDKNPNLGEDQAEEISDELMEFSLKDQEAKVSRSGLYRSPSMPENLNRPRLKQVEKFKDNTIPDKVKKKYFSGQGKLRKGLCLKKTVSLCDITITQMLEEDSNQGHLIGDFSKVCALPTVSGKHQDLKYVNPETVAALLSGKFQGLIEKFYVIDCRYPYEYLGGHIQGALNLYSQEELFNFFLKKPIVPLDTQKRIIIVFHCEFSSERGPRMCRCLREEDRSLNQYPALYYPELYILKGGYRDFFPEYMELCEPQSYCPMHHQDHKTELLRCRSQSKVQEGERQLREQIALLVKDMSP

[4] = biological target: T2, M-phase inducer phosphatase 2 (Homo sapiens) (UniProt P30305); assay: Inhibition of recombinant human Cdc25B at 10 uM using OMFP as substrate preincubated for 5 to 8 mins and measured every 5 mins 60 mins by fluorescence based assay
T2 sequence (whole entry): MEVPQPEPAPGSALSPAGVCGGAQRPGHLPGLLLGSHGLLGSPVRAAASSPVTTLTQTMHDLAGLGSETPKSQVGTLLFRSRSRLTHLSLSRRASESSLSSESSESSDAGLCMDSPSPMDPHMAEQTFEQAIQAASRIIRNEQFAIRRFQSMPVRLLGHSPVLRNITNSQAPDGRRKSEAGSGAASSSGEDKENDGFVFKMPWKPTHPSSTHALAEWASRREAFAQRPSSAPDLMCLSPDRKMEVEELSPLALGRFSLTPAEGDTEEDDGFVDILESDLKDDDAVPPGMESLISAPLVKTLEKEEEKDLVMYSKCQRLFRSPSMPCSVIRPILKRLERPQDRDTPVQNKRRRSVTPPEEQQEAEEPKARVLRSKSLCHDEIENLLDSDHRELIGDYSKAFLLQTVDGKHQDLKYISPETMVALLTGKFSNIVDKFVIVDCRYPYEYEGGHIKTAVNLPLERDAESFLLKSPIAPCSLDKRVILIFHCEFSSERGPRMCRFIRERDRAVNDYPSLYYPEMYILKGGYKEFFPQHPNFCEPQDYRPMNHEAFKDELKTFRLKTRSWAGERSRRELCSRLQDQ

[5] = biological target: T3, M-phase inducer phosphatase 1 (Homo sapiens) (UniProt P30304); assay: Inhibition of recombinant human Cdc25A at 10 uM using OMFP as substrate preincubated for 5 to 8 mins and measured every 5 mins 60 mins by fluorescence based assay relative to control
T3 sequence (whole entry): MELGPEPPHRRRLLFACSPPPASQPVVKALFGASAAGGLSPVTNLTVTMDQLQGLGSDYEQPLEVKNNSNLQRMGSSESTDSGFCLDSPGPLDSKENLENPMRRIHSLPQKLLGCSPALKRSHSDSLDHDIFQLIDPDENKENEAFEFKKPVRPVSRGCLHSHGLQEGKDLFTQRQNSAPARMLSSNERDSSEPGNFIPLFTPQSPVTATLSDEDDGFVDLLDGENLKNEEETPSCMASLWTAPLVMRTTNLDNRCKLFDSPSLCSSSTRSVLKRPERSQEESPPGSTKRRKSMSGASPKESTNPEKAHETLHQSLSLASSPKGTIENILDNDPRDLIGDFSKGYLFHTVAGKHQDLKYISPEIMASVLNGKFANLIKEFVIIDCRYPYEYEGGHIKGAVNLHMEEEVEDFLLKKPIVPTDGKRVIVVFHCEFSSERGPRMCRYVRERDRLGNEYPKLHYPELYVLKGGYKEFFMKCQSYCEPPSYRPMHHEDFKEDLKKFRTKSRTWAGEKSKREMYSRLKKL

KB = assay: Antiproliferative activity against human KB cells assessed as reduction in cell viability incubated for 72 hrs by SRB assay; format: functional, cell-based
MCF7 = assay: Antiproliferative activity against human MCF7 cells assessed as reduction in cell viability incubated for 72 hrs by SRB assay; format: functional, cell-based; details: MCF7, 72 h
MDA-MB-231 = assay: Antiproliferative activity against human MDA-MB-231 cells assessed as reduction in cell viability incubated for 72 hrs by SRB assay; format: functional, cell-based; details: MDA-MB-231, 72 h
[6] = biological target: T4, M-phase inducer phosphatase 3 (Homo sapiens, UniProt P30307); assay: Inhibition of recombinant human Cdc25C using OMFP as substrate preincubated for 5 to 8 mins and measured every 5 mins 60 mins by fluorescence based assay
T4 sequence (P30307 whole entry): T1 sequence (whole entry)

Homo sapiens [7] = species: Homo sapiens; assay: Selectivity index, ratio of IC50 for recombinant human Cdc25B to IC50 for recombinant human Cdc25C
Homo sapiens [8] = species: Homo sapiens; assay: Selectivity index, ratio of IC50 for recombinant human Cdc25A to IC50 for recombinant human Cdc25C
[9] = biological target: T5, M-phase inducer phosphatase 2 (Homo sapiens, UniProt P30305); assay: Inhibition of recombinant human Cdc25B using OMFP as substrate preincubated for 5 to 8 mins and measured every 5 mins 60 mins by fluorescence based assay
T5 sequence (P30305 whole entry): T2 sequence (whole entry)

[10] = biological target: T6, M-phase inducer phosphatase 1 (Homo sapiens, UniProt P30304); assay: Inhibition of recombinant human Cdc25A using OMFP as substrate preincubated for 5 to 8 mins and measured every 5 mins 60 mins by fluorescence based assay
T6 sequence (P30304 whole entry): T3 sequence (whole entry)

[11] = biological target: T1, M-phase inducer phosphatase 3 (Homo sapiens); assay: Potency index, ratio of IC50 of NSC663284 to IC50 of compound for inhibition of recombinant human Cdc25C using OMFP as substrate preincubated for 5 to 8 mins and measured every 5 mins 60 mins by fluorescence based assay

Compound	IC50 (A549)	inhibition [3]	inhibition [4]	inhibition [5]	IC50 (KB)	IC50 (MCF7)	IC50 (MDA-MB-231)	IC50 [6]	Ratio IC50 (Homo sapiens [7])	Ratio IC50 (Homo sapiens [8])	IC50 [9]	IC50 [10]	Ratio IC50 [11]	IC50 [1]	IC50 [2]
CC(=O)O[C@H]1C(=O)[C@@]2(C)[C@H]([C@H](OC(=O)c3ccccc3)[C@]3(O)C[C@H](OC(=O)[C@H](O)[C@@H](NC(=O)c4ccccc4)c4ccccc4)C(C)=C1C3(C)C)[C@]1(OC(C)=O)CO[C@@H]1C[C@@H]2O [PACLITAXEL]	0.00752 µM	–	–	–	–	–	–	–	–	–	–	–	–	36.5 µM	3.15 µM
O=C1C(Cl)=C(NCCN2CCOCC2)C(=O)c2ncccc21	2.76 µM	Active	Active	48.4%	4.89 µM	1 µM	4.97 µM	–	–	–	–	–	–	3.31 µM	4.87 µM

Further lines, with some results ahead:

IC50 (A549)	inhibition [3]	inhibition [4]	inhibition [5]	IC50 (KB)	IC50 (MCF7)	IC50 (MDA-MB-231)	IC50 [6]	Ratio IC50 (Homo sapiens [7])	Ratio IC50 (Homo sapiens [8])	IC50 [9]	IC50 [10]	Ratio IC50 [11]	Compound	IC50 [1]	IC50 [2]
3.92 µM	Active	Active	74.4%	5.05 µM	4.71 µM	4.63 µM	0.09 µM	15	6	1.39 µM	0.53 µM	9	Cc1ccc(Cn2cc(CNC3=C(Cl)C(=O)c4cccnc4C3=O)nn2)cc1	6 µM	6.81 µM
4.5 µM	Active	Active	57.2%	5.13 µM	4.7 µM	4.86 µM	0.42 µM	–	–	2.79 µM	1.2 µM	–	N#Cc1ccccc1Cn1cc(CNC2=C(Cl)C(=O)c3cccnc3C2=O)nn1	2.18 µM	9.02 µM
4.92 µM	Active	Active	69.1%	5.01 µM	4.84 µM	4.9 µM	0.21 µM	–	–	1 µM	0.54 µM	–	N#Cc1cccc(Cn2cc(CNC3=C(Cl)C(=O)c4cccnc4C3=O)nn2)c1	6.43 µM	11.6 µM
